# Where two headings read alike, the source gives them in different places.
# Columns and labels:
# [1] = Protocol: Prior to use, the appropriate amount of choline solution is transferred from the sterile vial and is added to the nutrient solution which typically is contained in a TPN bag.
# [2] = test system: plasma levels of homocysteine
# Protocol: Two female normal volunteers were infused with C-13-labeled choline and plasma levels of homocysteine were determined before and after infusion.
Compound,"effects on the TPN solution turbidity, pH, or amino acid concentrations ([1]; choline chloride added to TPN nutrient solutions)",stable in various TPN nutrient solutions ([1]; various TPN nutrient solutions),"Plasma concentration of homocysteine after infusion ([2]; first normal volunteer, 6.62 umol/L before infusion) [µmol/L]","Plasma concentration of homocysteine after infusion ([2]; second normal volunteer, 7.47 umol/L before infusion) [µmol/L]"
"C[N+](C)(C)CCO.[Cl-] [Choline chloride, choline chloride]",no adverse affects,at least 30 days,,
C-13-labeled choline,,,5.14,6.64
